pIC50: −log10 of the molar value. Read-outs that look alike come from different tables or passages of the source. Where no end group is shown, it is not given here.
Assays:
[1] = test system: rASIC1b; conditions: literature, cited from earlier work
[2] = test system: rASIC1a/3; conditions: reported in literature; cited from earlier work
[3] = target: rat ASIC1a channel, homomeric (rat) (UniProt P55926)
[4] = target: rat ASIC1a channel, homomeric (rat) (UniProt P55926); remark: listed apart in the source
[5] = target: rat ASIC1b channel, homomeric (rat) (UniProt P55926)
rat ASIC1b channel, homomeric (rat), sequence (P55926 other isoform, or with tags, fused parts or gaps): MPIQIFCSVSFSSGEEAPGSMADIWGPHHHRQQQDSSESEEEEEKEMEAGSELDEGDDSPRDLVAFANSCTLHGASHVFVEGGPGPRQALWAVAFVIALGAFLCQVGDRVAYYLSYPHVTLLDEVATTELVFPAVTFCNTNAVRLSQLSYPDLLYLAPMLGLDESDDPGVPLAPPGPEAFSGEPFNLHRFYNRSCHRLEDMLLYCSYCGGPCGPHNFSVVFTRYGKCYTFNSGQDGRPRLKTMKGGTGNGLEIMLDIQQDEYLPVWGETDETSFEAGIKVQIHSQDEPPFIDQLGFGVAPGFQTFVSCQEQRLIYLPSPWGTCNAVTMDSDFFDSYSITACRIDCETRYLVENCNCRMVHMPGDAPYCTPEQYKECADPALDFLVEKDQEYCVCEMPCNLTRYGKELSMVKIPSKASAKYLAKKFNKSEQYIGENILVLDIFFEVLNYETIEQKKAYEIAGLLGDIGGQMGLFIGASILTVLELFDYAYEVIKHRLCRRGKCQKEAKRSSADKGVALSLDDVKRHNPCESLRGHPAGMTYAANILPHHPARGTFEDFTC

rat ASIC1a channel, homomeric (rat), sequence (P55926 whole entry): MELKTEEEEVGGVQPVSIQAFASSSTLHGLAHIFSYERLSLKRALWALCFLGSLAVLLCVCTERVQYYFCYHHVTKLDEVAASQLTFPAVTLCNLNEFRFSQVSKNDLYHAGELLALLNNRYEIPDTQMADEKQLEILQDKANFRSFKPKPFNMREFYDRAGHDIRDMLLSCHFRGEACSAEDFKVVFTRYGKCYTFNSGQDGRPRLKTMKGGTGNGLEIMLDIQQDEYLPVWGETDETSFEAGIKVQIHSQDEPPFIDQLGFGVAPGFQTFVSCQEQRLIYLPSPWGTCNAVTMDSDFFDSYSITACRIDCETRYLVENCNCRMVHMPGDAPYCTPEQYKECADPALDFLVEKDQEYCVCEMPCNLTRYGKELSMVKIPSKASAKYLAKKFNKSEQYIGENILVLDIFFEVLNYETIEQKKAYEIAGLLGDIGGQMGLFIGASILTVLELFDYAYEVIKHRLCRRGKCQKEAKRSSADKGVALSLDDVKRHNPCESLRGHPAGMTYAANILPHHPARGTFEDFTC

Substance	pIC50 ([1]; ref 21)	pIC50 ([1]; ref 27)	effect on rASIC1a/3 [2]	IC50 of inhibition of pH 5.5-evoked currents of homomeric rASIC1a in Xenopus oocytes (TEVC; peptide applied for 30 s at pH 7.4) [3] [nM]	IC50 of inhibition of pH 6.7-evoked currents of homomeric rASIC1a in Xenopus oocytes (TEVC; peptide applied for 30 s at pH 7.4) [4] [nM]	IC50 of inhibition of pH 5.5-evoked currents of homomeric rASIC1b in Xenopus oocytes (TEVC; peptide applied for 30 s at pH 7.4) [5] [nM]
Mamb-1 (LKCYQHGKVVTCHRDMKFCYHNTGMPFRNLKLILQGCSSSCSETENNKCCSTDRCNK; ends and bridges not checked; cysteine pairing not given here; UniProt P0DKR6 22-78, looked up)	6.72	7.41	no effect	–	–	–
mambalgin (Mamb), wild-type peptide (from UniProt P0DKS3 1-57)	–	–	–	110	86	119
